Key:
Experiment in all cases: relative viability (nuclei count vs DMSO), 5 days (fraction); higher = more cells survive
Adavosertib = compound: C=CCn1c(=O)c2cnc(Nc3ccc(N4CCN(C)CC4)cc3)nc2n1-c1cccc(C(C)(C)O)n1 [Adavosertib]
Procedure, shortened: (§1)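 On vehicle-anchored 1536-well plates, lung cancer cell lines held overnight at 37 °C were pinned with five library-drug doses (not always all listed) spaced by √10. With no medium change over 5 days, they were then fixed, permeabilised and Hoechst-stained in one step and imaged at 4×. MetaXpress counted nuclei, and viability is the median across plates of treated-well over vehicle-well nuclei. Acceptance needed control CV below 25% and at least one doubling.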

Nelarabine = compound: COc1nc(N)nc2c1ncn2[C@@H]1O[C@H](CO)[C@@H](O)[C@@H]1O [Nelarabine]
Procedure, shortened: as §1

Adavosertib + Pemetrexed = compound: C=CCn1c(=O)c2cnc(Nc3ccc(N4CCN(C)CC4)cc3)nc2n1-c1cccc(C(C)(C)O)n1 [Adavosertib] + Nc1nc2[nH]cc(CCc3ccc(C(=O)N[C@@H](CCC(=O)O)C(=O)O)cc3)c2c(=O)[nH]1 [Pemetrexed] (partner 0.2 µM)
Procedure, shortened: (§2)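 Relative viability equals treated-well nuclei counts divided by vehicle-well nuclei counts. Counts came from 4× images of lung cancer cell lines grown in 1536-well plates for 5 days after pin-tool dosing on the day after seeding. Dosing used one drug alone or a fixed anchor-drug dose plus five library-drug doses (not always all listed) in √10 steps, and values are medians of duplicate plates.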

Nelarabine + Crizotinib = compound: COc1nc(N)nc2c1ncn2[C@@H]1O[C@H](CO)[C@@H](O)[C@@H]1O [Nelarabine] + C[C@@H](Oc1cc(-c2cnn(C3CCNCC3)c2)cnc1N)c1c(Cl)ccc(F)c1Cl [Crizotinib] (partner 1 µM)
Procedure, shortened: as §2

Cell Line: EMC-BAC-2
- relative viability (Adavosertib; 0.03162 µM): 1.02
- relative viability (Adavosertib; 0.1 µM): 1.08
- relative viability (Adavosertib; 0.3162 µM): 0.919
- relative viability (Nelarabine; 0.01 µM): 1.01
- relative viability (Nelarabine; 0.03162 µM): 1.22
- relative viability (Nelarabine; 0.1 µM): 1.08
- relative viability (Nelarabine; 0.3162 µM): 0.968
- relative viability (Nelarabine; 1 µM): 1.07
- relative viability (Adavosertib + Pemetrexed; first compound 0.03162 µM): 0.399
- relative viability (Adavosertib + Pemetrexed; first compound 0.1 µM): 0.357
- relative viability (Adavosertib + Pemetrexed; first compound 0.3162 µM): 0.334
- relative viability (Nelarabine + Crizotinib; first compound 0.01 µM): 0.734
- relative viability (Nelarabine + Crizotinib; first compound 0.03162 µM): 0.624
- relative viability (Nelarabine + Crizotinib; first compound 0.1 µM): 0.782
- relative viability (Nelarabine + Crizotinib; first compound 0.3162 µM): 0.843
- relative viability (Nelarabine + Crizotinib; first compound 1 µM): 0.683

Source: the supplement of paper PMC10307832
